“Also recorded” adds a separate entry of the source.
Tests used:
VSV*ΔG(Luc)-S virus = assay: organism not typed; format: cell-based
VSV.G virus = format: cell-based
SARS-CoV-2 = conditions: cited from earlier work
SARS-CoV-2 pseudovirus = format: cell-based
[1] = system: Human Lung Tissue (HTL) cells

Compound	EC50 (VSV*ΔG(Luc)-S virus) [µM]	inhibition of the VSV.G virus (VSV.G virus)	in vitro activity against SARS-CoV-2 (SARS-CoV-2)	inhibition of virus infection (SARS-CoV-2 pseudovirus)	cell death [1]	decrease in infection rate (VSV*ΔG(Luc)-S virus)	infection rate (VSV*ΔG(Luc)-S virus) [%]
Cc1cn(-c2cc(NC(=O)c3ccc(C)c(Nc4nccc(-c5cccnc5)n4)c3)cc(C(F)(F)F)c2)cn1 [nilotinib]	> 15	partially inhibit	did show in vitro antiviral effect	dose-dependent inhibition of virus infection	–	–	–
CN1CCN(c2ccc(C(=O)Nc3n[nH]c4ccc(Cc5cc(F)cc(F)c5)cc34)c(NC3CCOCC3)c2)CC1 [entrectinib]	< 1	partially inhibit; also recorded: demonstrated an antiviral effect	–	dose-dependent inhibition of virus infection	without inducing significant cell death	–	–
Cc1cccc(/C=N/Nc2cc(N3CCOCC3)nc(OCCc3ccccn3)n2)c1 [apilimod]	–	partially inhibit	–	dose-dependent inhibition of virus infection	–	lower decrease in infection rate	50
Cc1ccc(NC(=O)c2ccc(CN3CCN(C)CC3)cc2)cc1Nc1nccc(-c2cccnc2)n1 [imatinib]	–	–	do not show antiviral efficacy	–	–	–	–

Source: EP4122466A1 (priority 2021, dated 2023)
